Experimental findings from PubChem BioAssay (NCI) are described below.

Test in all cases: NCI tumour cell line growth inhibition, 48 h
In test [1] the test system is HT29 colon.
The subject of test [2] is K-562 leukemia.
For test [3], the system named is RXF 393 renal.
Test [4] has as its system SK-MEL-28 melanoma.
Test [5] concerns MDA-MB-435.
In test [6] the test system is OVCAR-5 ovarian.
Test [7] concerns NCI/ADR-RES ovarian.
The subject of test [8] is KM12 colon.
Test [9] has as its system COLO 205 colon.
For test [10], the system named is SF-268 CNS.

Where “and” joins values, the source holds several entries; their conditions need not be identical. Equal entries are not always repeated.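 Step 1: Grow cells in 96-well plates. Step 2: Expose to compound for 48 hours at 5 concentrations. Step 3: Interpolate endpoints linearly; if unreached, use highest concentration. The concentration for 50% growth inhibition is given as GI50. TGI marks complete inhibition of growth.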

With `CN(C)c1ccc(C(=C2C=CC(=[N+](C)C)C=C2)c2ccc(N(C)C)cc2)cc1`, the GI50 in [1] is 0.0363 µM; in test [3], 0.113 µM; in [4], 0.219 µM; in test [5], 0.152 µM; in [6], 0.295 µM; in test [7] it was 0.41 µM. The GI50 in test [8] was 0.0781 µM; in [9] it was 0.0974 µM. For the same compound, the TGI in [1] is 0.158 µM; in [2], 1.1 µM and 0.143 µM; in test [3], 0.468 µM and 0.695 µM; in [4], 1.09 µM and 1.9 µM; in test [5], 0.431 µM; in test [6] it was 1.17 µM and 0.578 µM. Further, the TGI is 2 µM in [7]; 0.397 µM and 0.93 µM in test [8]; 0.447 µM and 0.751 µM in test [9].

Turning to `Cc1c(Cl)cccc1NC1=C(Cl)C(=O)N(Cc2ccccc2)C1=O`, the GI50 in test [2] is 4.25 µM; in test [3], 12 µM; in test [4] it was 15.1 µM; in [5], 8.55 µM; in [6] it was 17.6 µM; in test [10], 6.88 µM. Moreover, the results for the GI50 in [7], in test [8] and in test [9] were 5 µM, 2.17 µM and 22.1 µM, respectively. Moreover, the TGI in test [2] is 16.9 µM; in test [3], 32.7 µM; in test [4], 30.7 µM; in [5], 20.8 µM; in test [6] it was 31.5 µM; in [10], 27 µM. In addition, the TGI in test [7] is 20.9 µM; in test [8], 14 µM; in test [9] it was 57.2 µM.

In the case of `CCOC(=O)c1nc(Nc2ccc(Cl)cc2)c2ccccc2n1`, the GI50 was 46 µM in test [2]; 7.35 µM in test [3]; 7.5 µM in [4]; 6.85 µM in test [5]; 10.7 µM in [6]; 10.1 µM in [10]. Moreover, the GI50 in [7] was 13.2 µM; in [8], 7.42 µM; in [9], 9.8 µM. Further, the TGI in test [2] is > 50 µM; in test [3] it was 16.8 µM; in test [4], 17.6 µM; in test [5], 13.3 µM; in [6] it was 22.3 µM; in test [10] it was 25.1 µM. Besides, the figures for the TGI in test [7], in [8] and in [9] were 22.9 µM, 15.1 µM and 20.6 µM, respectively.

With `CCCOc1nc(SCCC)nc2c1cnn2-c1ccccc1`, the GI50 in test [2] is > 100 µM; in [3], 78.9 µM; in test [4], > 100 µM; in [5], 53.1 µM; in test [6], > 100 µM; in [10] it was > 100 µM. The figures for the GI50 in test [7], in [8] and in [9] were > 100 µM, 93.1 µM and > 100 µM, respectively. Also, the TGI in test [2], in test [3], in [4], in test [5], in test [6] and in [10] was > 100 µM each time. Also, the TGI in test [7], in [8] and in test [9] was > 100 µM in each case.

With `N=C(N)c1ccc(COc2ccccc2OCc2ccc(C(=N)N)cc2)cc1`, the GI50 is 47 µM in test [1]; 34.8 µM in [2]; 70 µM in test [4]; 30.2 µM in [5]; > 100 µM in [6]; 31.8 µM in [10]. Further, the GI50 in test [7] and in test [9] was > 100 µM each time. Moreover, the TGI in test [1] is > 100 µM; in [2], > 100 µM; in test [4], > 100 µM; in test [5] it was > 100 µM; in [6], > 100 µM; in [10], 86 µM. Besides, the TGI in test [7] and in test [9] was > 100 µM throughout.

`O=C(COc1cccc(/C=C2\COc3ccc(Cl)cc3C2=O)c1)c1ccc(Cl)cc1`: the GI50 is 7.69 µM in [1]; 2.67 µM in [2]; 18.3 µM in test [4]; 5.91 µM in test [5]; 13 µM in test [6]; 13.9 µM in test [10]. Besides, the figures for the GI50 in [7], in test [8] and in test [9] were 20.5 µM, 2.79 µM and 15 µM, respectively. The TGI in test [1] was 20.2 µM; in test [2], > 100 µM; in test [4], 32.2 µM; in test [5], 18.6 µM; in [6], 25.8 µM; in [10], 26.9 µM. In addition, the TGI in [7] turned out to be 69.6 µM; in test [8], 11.2 µM; in test [9], 29.8 µM.

As to `Cc1cn2c(/C=N/Nc3ccccn3)c(-c3ccc(Cl)c([N+](=O)[O-])c3)nc2s1`, the GI50 in test [2] was 26.7 µM; in test [4] it was 26.5 µM; in test [5], 30.3 µM; in test [6] it was 11.8 µM; in test [10], 11.6 µM; in test [7], 11.3 µM. For the same compound, the GI50 is 23.1 µM in [8] and > 50 µM in [9]. Also, the TGI in test [2] is > 50 µM; in test [4], > 50 µM; in [5] it was > 50 µM; in [6] it was 39.5 µM; in test [10] it was 31.7 µM; in test [7], 30.9 µM. In addition, the TGI in [8] and in [9] was > 50 µM in each case.

As for `COc1ccc2c(c1)C(C)Cc1c(Cl)nc(C)nc1N2C` (centres undefined), the GI50 in test [1] was 2.2 µM; in [2], 0.713 µM; in test [3] it was 2.78 µM; in test [4], 3.4 µM; in test [6], 5.91 µM; in test [10], 2.6 µM. For the same compound, the GI50 in test [7] is 1.7 µM; in test [8], 0.789 µM; in test [9], 2.07 µM. The TGI is 8.92 µM in [1]; > 100 µM in [2]; 20.8 µM in [3]; 38.5 µM in test [4]; > 100 µM in test [6]; 18.6 µM in test [10]. Further, the TGI in [7] worked out at 16.7 µM; in test [8], 11.4 µM; in test [9], 5.53 µM.
